{
  "source": "patent US8758816B2",
  "about": "“Compositions comprising azelastine and methods of use thereof” (priority 2004, dated 2014)",
  "key": {"[1]": {"settings": "human, in vivo; cited from earlier work"}, "[2]": {"system": "patients with seasonal allergic rhinitis (SAR)", "settings": "in vivo"}, "[3]": {"assay": "Leaching of azelastine into the polymer of unit dose containers", "assay_type": "physicochemical"}},
  "note": "Counter-ions that a name gives are not always drawn.",
  "data": [
    {"compound": "CN1CCCC(n2nc(Cc3ccc(Cl)cc3)c3ccccc3c2=O)CC1", "note": "(racemic) [Azelastine, (±)-1-(2H)-phthalazinone, 4-[(4-chlorophenyl)methyl]-2-(hexahydro-1-methyl-1H-azepin-4-yl)-, mono-hydrochloride]", "values": [
      {"measurement": "bitter taste adverse event", "setting": "[1]", "result": 19.7, "unit": "%"},
      {"measurement": "Body Weight for Patients of Age 12 to 17, Actual, Mean", "setting": "[2]", "result": 104.7, "unit": "lb"},
      {"measurement": "Body Weight for Patients of Age 12 to 17, Actual, Median", "setting": "[2]", "result": 104.0, "unit": "lb"},
      {"measurement": "Body Weight for Patients of Age 12 to 17, Actual, Min-Max", "setting": "[2]", "result": "98-112 lb"},
      {"measurement": "Body Weight for Patients of Age 18 and Beyond, Actual, Mean", "setting": "[2]", "result": 186.2, "unit": "lb"},
      {"measurement": "Body Weight for Patients of Age 18 and Beyond, Actual, Median", "setting": "[2]", "result": 177.8, "unit": "lb"},
      {"measurement": "Body Weight for Patients of Age 18 and Beyond, Actual, Min-Max", "setting": "[2]", "result": "102-284 lb"},
      {"measurement": "Body Weight, Actual, Mean", "setting": "[2]", "result": 181.2, "unit": "lb"},
      {"measurement": "Body Weight, Actual, Median", "setting": "[2]", "result": 174.0, "unit": "lb"},
      {"measurement": "Body Weight, Actual, Min-Max", "setting": "[2]", "result": "98-284 lb"},
      {"measurement": "Respiration, Actual, Median", "setting": "[2]", "result": 16.0, "unit": "bpm"},
      {"measurement": "Respiration, Change from baseline, Median", "setting": "[2]", "result": 0.0, "unit": "bpm"},
      {"measurement": "Respiration, Change from baseline, Min-Max", "setting": "[2]", "result": "−4-4 bpm"},
      {"measurement": "leaching into the container material", "setting": "[3]; HDPE unit dose containers, in contrast to lower-density PE", "result": "reduce, substantially reduce, or eliminate leaching"},
      {"measurement": "leachability into the container material", "setting": "[3]; containers of polymers other than HDPE, including polyethylenes of lower density", "result": "high degree of undesirable leachability"}
    ]}
  ]
}
